Read-outs that look alike come from different tables or passages of the source.
Key:
[1] = target: T1, peripheral receptors for benzodiazepines ([^3 H]-PK 11195) (Rattus norvegicus, UniProt P16257); test: Displacement of [3H]-PK 11195, rat heart microsomal fractions; type: binding; conditions: corrected for DMSO, read-out: K0.5, peripheral receptors, [^3 H]--PK 11195;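 further: radioligand binding with bound label split from free by vacuum filtration, then quantified through liquid scintillation counting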
T1 construct: on microsomal fractions from rat heart; from tissue; host or cells: rat heart, microsomal fractions

[2] = target: T2, peripheral receptors for benzodiazepines ([^3 H]-R05-4864) (Rattus norvegicus, UniProt P16257); test: Displacement of [3H]-R05-4864, rat heart microsomal fractions; type: binding; conditions: corrected for DMSO, read-out: K0.5, peripheral receptors, [^3 H]--RO 54864;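 further: Read-out is filter-retained bound radioligand, separated from free ligand by vacuum filtration over GF/C and counted by liquid scintillation, with compounds first dissolved in DMSO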
T2 construct: on microsomal fractions from rat heart; from tissue; host or cells: rat heart, microsomal fractions

[3] = target: central receptors for benzodiazepines; test: Displacement of [3H]-RO 151788, rat central nervous system microsomal fractions; type: binding; conditions: corrected for DMSO, read-out: K0.5, central receptors, [^3 H]--RO 151788
[4] = system: porcine coronary; test: Porcine coronary relaxation (PGF2α-precontracted coronary segments); set-up: species or system pig (Yucatan mini pig); conditions: for EC20 / EC50: Sus scrofa; for EC20: read-out: DE20, effect on coronary tension induced by PGF2α; for EC50: read-out: DE50, effect on coronary tension induced by PGF2α; for level of relaxation obtained as well as the 50% effect value (K0.5) obtained by displacement: overall judgement of relaxation and K0.5
Protocol: All the products studied were dissolved in DMSO at a concentration of 10^-2 M, then diluted to the desired concentrations in the experimental media. All of the ED20, ED50 and K0.5 values were corrected for the values obtained with DMSO under the same conditions of dilution.
Coronaries were taken on the heart of pigs (Yucatan mini pig), anesthetized under stresnil and pentobarbital. Proximal segments of the coronary were placed in an organ tank filled with Ringer solution at 37° C. The segments were tightened progressively to a base tension of around 6 g and contracted by the addition of PGF2α at a concentration of 4.10^-6 M. The potential of the products of the present invention to relax the coronary artery were then tested.
All of the compounds were tested for their capacity to relax the porcine coronary precontracted by PGF2α.

[5] = porcine coronary segments, 37° C., PGF2α 4.10^-6 M, corrected for DMSO
[6] = porcine coronary segments, PGF2α 4.10^-6 M

| Compound | IC50 [1] | IC50 [2] | IC50 [3] | EC20 [4, 5] | EC50 [4, 5] | EC20 [4] | EC50 [4] | Effect on coronary tension induced by PGF2α (in words) [4, 6] | level of relaxation obtained as well as the 50% effect value (K0.5) obtained by displacement [4] |
| --- | --- | --- | --- | --- | --- | --- | --- | --- | --- |
| CCN(CC)C(=O)CCCn1c(=O)n2cc(-c3ccccc3)nc2c2ccccc21 [Example 26, 2-phenyl-6-N,N-diethylaminocarbonylpropyl-5-oxo-5,6-dihydroimidazo[1,2-c]quinazoline] | 10 µM | 2.3 µM | 100 µM | 45.3 µM | 7.67 µM |  |  |  |  |
| O=C(Cn1c(=O)n2cc(-c3ccccc3)nc2c2ccccc21)N1CCOCC1 [Example 16, 2-phenyl-6-morpholinocarbonylmethyl-5-oxo-5,6-dihydroimidazo[1,2-c]quinazoline] | > 100 µM | > 100 µM | > 100 µM | 12.3 µM | 3.49 µM |  |  |  |  |
| CCN(CC)C(=O)Cn1c(=O)n2cc(-c3ccc(OC)c(OC)c3)nc2c2ccccc21 [Example 23, 2-(3,4-dimethoxyphenyl)-6-N,N-diethylaminocarbonylmethyl-5-oxo-5,6-dihydroimidazo[1,2-c]quinazoline] |  |  | > 100 µM | 0.74 µM | 0.18 µM |  |  |  |  |
| CCC(C)N(C)C(=O)c1cc2ccccc2c(-c2ccccc2Cl)n1 (centres unmarked) [PK 11195, reference compound] |  |  |  |  |  | 9.13 µM | 1.66 µM |  |  |
| CCN(CC)C(=O)Cn1c(=O)n2cc(-c3ccccc3)nc2c2c(Cl)cccc21 [Example 31, 2-phenyl-6-N,N-diethylaminocarbonylmethyl-10-chloro-5-oxo-5,6-dihydroimidazo[1,2-c]quinazoline] | 1.4 µM | 2.8 µM | 100 µM |  |  |  |  |  |  |
| OCCN(CCO)c1nc(N2CCCCC2)c2nc(N(CCO)CCO)nc(N3CCCCC3)c2n1 [Dipyridamole, dipyridamole, reference compound] | 0.3 µM | 0.2 µM |  | 1.61 µM | 0.446 µM |  |  |  |  |
| CN1CCN(C(=O)Cn2c(=O)n3cc(-c4ccccc4)nc3c3ccccc32)CC1 [Example 12, 2-phenyl-6-N-methylpiperazinocarbonylmethyl-5-oxo-5,6-dihydroimidazo[1,2-c]quinazoline] | 80 µM | 40 µM |  | 587 µM | 31.9 µM |  |  |  |  |
| CCN(CC)C(=O)Cn1c(=O)n2cc(C(N)=O)nc2c2ccccc21 [Example 4, 2-Aminocarbonyl-6-N,N-diethylaminocarbonylmethyl-5-oxo-5,6-dihydroimidazo[1,2-c]quinazoline] | 8 µM | 6 µM | > 100 µM | 57.4 µM | 9.66 µM |  |  |  |  |
| CCc1c(-c2ccccc2)nc2c3ccccc3n(CC(=O)N(CC)CC)c(=O)n12 [Example 25, 2-phenyl-3-ethyl-6-N,N-diethylaminocarbonylmethyl-5-oxo-5,6-dihydroimidazo[1,2-c]quinazoline] | 0.032 µM | 0.05 µM |  | > 100 µM | 370 µM |  |  |  |  |
| Cn1c(=O)n2cc(-c3ccccc3)nc2c2ccccc21 [Example 29, 2-phenyl-6-methyl--5-oxo-5,6-dihydroimidazo[1,2-c]quinazoline] | > 100 µM | > 100 µM |  | > 100 µM | > 100 µM |  |  |  |  |
| O=C(c1ccccc1)c1cn2c(=O)[nH]c3ccccc3c2n1 [Example 9, 2-benzoyl-5-oxo-5,6-dihydroimidazo[1,2-c]quinazoline] | 28 µM | 13 µM |  |  |  |  |  | No effect |  |
| CCOC(=O)c1cn2c(=O)n(Cc3ccccc3)c3ccccc3c2n1 [Example 10, 2-ethoxycarbonyl-6-benzyl-5-oxo-5,6-dihydroimidazo[1,2-c]quinazoline] | ~100 µM | 8.8 µM |  | 3.33 µM | 1.04 µM |  |  |  | particularly favorable |
| CCOC(=O)CCCn1c(=O)n2cc(-c3ccccc3)nc2c2ccccc21 [Example 27, 2-phenyl-6-ethoxycarbonylpropyl-5-oxo-5,6-dihydroimidazo[1,2-c]quinazoline] | > 100 µM | 60 µM | 100 µM | > 100 µM | > 100 µM |  |  |  |  |
| CCN(CC)C(=O)Cn1c(=O)n2cc(-c3ccsc3)nc2c2ccccc21 [Example 22, 2-(3-thienyl)-6-N,N-diethylaminocarbonylmethyl-5-oxo-5,6-dihydroimidazo[1,2-c]quinazoline] | 0.2 µM | 0.13 µM | > 100 µM | 3.51 µM | 0.73 µM |  |  |  |  |
| CCN(CC)C(=O)Cn1c(=O)n2c(CN(C)C)c(-c3ccccc3)nc2c2ccccc21 [Example 5, 2-Phenyl-3-dimethylaminomethyl-6-N,N-diethylaminocarbonylmethyl-5-oxo-5,6-dihydroimidazo[1,2-c]quinazoline] | 2.2 µM | 4.5 µM |  | 144 µM | 18.9 µM |  |  |  |  |
| CCOC(=O)c1cn2c(=O)[nH]c3ccccc3c2n1 [Example 1, 2-Ethoxycarbonyl-5-oxo-5,6-dihydroimidazo[1,2-c]quinazoline] | > 100 µM | 61 µM | 1 µM |  |  |  |  | No effect |  |
| CCN(CC)C(=O)Cn1c(=O)n2cc(-c3ccccc3Cl)nc2c2ccccc21 [Example 30, 2-(o-chlorophenyl)-6-N,N-diethylaminocarbonylmethyl-5-oxo-5,6-dihydroimidazo[1,2-c]quinazoline] | 0.28 µM | 0.034 µM |  | 73.9 µM | 10.4 µM |  |  |  |  |
| CCN(CC)C(=O)Cn1c(=O)n2cc(-c3ccc(Cl)cc3)nc2c2ccccc21 [Example 15, 2-(p-chlorophenyl)-6-N,N-diethylaminocarbonylmethyl-5-oxo-5,6-dihydroimidazo[1,2-c]quinazoline] | 1.5 µM | ~100 µM | > 100 µM | 45.4 µM | 6.12 µM |  |  |  |  |
| CC(C)CNC(=O)Cn1c(=O)n2cc(-c3ccccc3)nc2c2ccccc21 [Example 24, 2-phenyl-6-N-isobutylaminocarbonylmethyl-5-oxo-5,6-dihydroimidazo[1,2-c]quinazoline] | > 100 µM | > 100 µM | > 100 µM | 24.1 µM | 0.99 µM |  |  |  |  |
| CCOC(=O)COc1ccc2c(=O)cc(-c3ccccc3)oc2c1 [Efloxate, efloxate, reference compound] | 20 µM | 200 µM |  | 35.8 µM | 3.94 µM |  |  |  |  |
| CCOC(=O)c1cn2c(=O)n(C)c3ccccc3c2n1 [Example 8, 2-ethoxycarbonyl-6-methyl-5-oxo-5,6-dihydroimidazo[1,2-c]quinazoline] | > 100 µM | 30 µM |  |  |  |  |  | No effect |  |
| CN1C(=O)CN=C(c2ccccc2)c2cc(Cl)ccc21 [Diazepam, diazepam, reference compound] |  |  |  |  |  | 16.4 µM |  |  |  |
| CCOC(=O)c1cn2c(=O)n(CC(=O)N(CC)CC)c3ccccc3c2n1 [Example 2, 2-Ethoxycarbonyl-6-N,N-diethylaminocarbonylmethyl-5-oxo-5,6-dihydroimidazo[1,2-c]quinazoline] | 0.55 µM |  |  |  |  |  |  |  |  |
| CCN(CC)C(=O)Cn1c(=O)n2cc(C(=O)c3ccccc3)nc2c2ccccc21 [Example 6, 2-Benzoyl-6-N,N-diethylaminocarbonylmethyl-5-oxo-5,6-dihydroimidazo[1,2-c]quinazoline] | 0.22 µM | 0.2 µM |  |  |  |  |  |  |  |
| O=c1[nH]c2ccccc2c2nc(-c3ccccc3)cn12 [Example 3, 2-Phenyl-5-oxo-5,6-dihydroimidazo[1,2-c]quinazoline] | 4.5 µM | > 100 µM |  | 35.4 µM | 7.48 µM |  |  |  |  |
| CCN(CC)C(=O)Cn1c(=O)n2cc(-c3ccccc3)nc2c2ccccc21 [Example 11, 2-phenyl-6-N,N-diethylaminocarbonylmethyl-5-oxo-5,6-dihydroimidazo[1,2-c]quinazoline] |  |  | > 100 µM | 6.93 µM | 1.13 µM |  |  |  | particularly favorable |
| CCN(CC)C(=O)Cn1c(=O)n2c(C)c(-c3ccccc3)nc2c2ccccc21 [Example 20, 2-phenyl-3-methyl-6--N,N-diethylaminocarbonylmethyl-5-oxo-5,6-dihydroimidazo[1,2-c]quinazoline] |  | 0.0086 µM |  | 3.46 µM | 0.87 µM |  |  |  |  |
| CN1C(=O)CN=C(c2ccc(Cl)cc2)c2cc(Cl)ccc21 [Example R05-4864, reference compound] |  |  |  |  |  | 9.38 µM | 1.48 µM |  |  |
| CCCN(CCC)C(=O)Cn1c(=O)n2cc(-c3ccccc3)nc2c2ccccc21 [Example 28, 2-phenyl-6-N,N-dipropylaminocarbonylmethyl-5-oxo-5,6-dihydroimidazo[1,2-c]quinazoline] |  |  | 100 µM | > 100 µM | 196 µM |  |  |  | particularly favorable |

From patent US5128338A, “Imidazo [1,2-c] quinazoline compounds” (priority 1990, dated 1992)
